Source: the supplement of paper PMC4862054

How the values were obtained:
Assay in all cases: normalised response (% of control), CellTiter-Glo; higher = more viable cells (100 = DMSO, 0 = benzethonium chloride kill control)
Conditions in all cases: incubation time: 72 h
BT-549 = system: BT-549
In short: (§1)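 Compound was dispensed into 384-well plates at 5 concentrations in 10-fold steps spanning a 10,000-fold range specific to that compound. Breast cancer cell lines were added as 20 µl suspension and left for 72 h before CellTox Green fluorescence (485/520 nm) and then CellTiter-Glo luminescence, read after 10 min at room temperature. Each reported value is the normalised signal at one concentration, with 0.1 % DMSO set at 100 and a positive kill control at 0 on each plate.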

MCF-10A = system: MCF-10A
In short: as §1

CAL-85-1 = system: CAL-85-1
In short: as §1

MDA-MB-436 = system: MDA-MB-436
In short: as §1

SK-BR-3 = system: SK-BR-3
In short: as §1

DU-4475 = system: DU-4475
In short: as §1

HCC1937 = system: HCC1937
In short: as §1

CAL-120 = system: CAL-120
In short: as §1

HCC1143 = system: HCC1143
In short: as §1

Hs578T = system: Hs578T
In short: as §1

BT-474 = system: BT-474
In short: as §1

HDQ-P1 = system: HDQ-P1
In short: as §1

MDA-MB-453 = system: MDA-MB-453
In short: as §1

CAL-148 = system: CAL-148
In short: as §1

CAL-51 = system: CAL-51
In short: as §1

MDA-MB-468 = system: MDA-MB-468
In short: as §1

MDA-MB-231 = system: MDA-MB-231
In short: as §1

MFM-223 = system: MFM-223
In short: as §1

HCC1599 = system: HCC1599
In short: as §1

Compound | normalised response (BT-549) [%] | normalised response (MCF-10A) [%] | normalised response (CAL-85-1) [%] | normalised response (MDA-MB-436) [%] | normalised response (SK-BR-3) [%] | normalised response (DU-4475) [%] | normalised response (HCC1937) [%] | normalised response (CAL-120) [%] | normalised response (HCC1143) [%] | normalised response (Hs578T) [%] | normalised response (BT-474) [%] | normalised response (HDQ-P1) [%] | normalised response (MDA-MB-453) [%] | normalised response (CAL-148) [%] | normalised response (CAL-51) [%] | normalised response (MDA-MB-468) [%] | normalised response (MDA-MB-231) [%] | normalised response (MFM-223) [%] | normalised response (HCC1599) [%]
CN1CCC(COc2cnc(-c3cccc(Cn4nc(-c5cccc(C#N)c5)ccc4=O)c3)nc2)CC1 (0.1 nM) | 95.1 | 89.1 | 92.8 | 81.1 | 84.6 | 93.1 | 94.5 | 96.1 | 94.6 | 96.4 | 98.2 | 99.1 | 105 | 103 | 82.4 | 96.9 | 98.5 | 94.2 | 92.2
CN(C)C/C=C/C(=O)Nc1cc2c(Nc3ccc(F)c(Cl)c3)ncnc2cc1O[C@H]1CCOC1 [Afatinib] (0.1 nM) | 97.3 | 91.2 | 116 | 85.8 | 104 | 104 | 96.6 | 93.7 | 93.2 | 99.6 | 94.9 | 108 | 111 | 103 | 75 | 100 | 103 | 96.2 | 99
COc1cc(Nc2ncc3c(n2)-c2ccc(Cl)cc2C(c2c(F)cccc2OC)=NC3)ccc1C(=O)O [Alisertib] (1 nM) | 95.6 | 84 | 91.9 | 99 | 94.2 | 97 | 88.4 | 96.7 | 91.6 | 95.6 | 98.9 | 94.7 | 95.9 | 89.3 | 116 | 95.9 | 93.3 | 92.9 | 90.2
COc1cc(Nc2ncc3c(n2)-c2ccc(Cl)cc2C(c2c(F)cccc2OC)=NC3)ccc1C(=O)O [Alisertib] (10 nM) | 96 | 93 | 94.4 | 89.5 | 70.4 | 98.2 | 95.9 | 96.1 | 93.9 | 97 | 93.4 | 97.1 | 88.3 | 91.9 | 86.4 | 87.7 | 95.3 | 88.6 | 102
CN1CC[C@H](c2c(O)cc(O)c3c(=O)cc(-c4ccccc4Cl)oc23)[C@H](O)C1 [Alvocidib] (10 nM) | 102 | 110 | 103 | 106 | 106 | 104 | 101 | 92.4 | 103 | 102 | 98.7 | 99.2 | 112 | 104 | 125 | 99.9 | 101 | 106 | 103
Nc1nc(Cl)nc2c1ncn2[C@H]1C[C@H](O)[C@@H](CO)O1 [Cladribine] (1 nM) | 97.2 | 104 | 102 | 102 |  | 106 | 101 | 97.5 | 104 | 105 | 99.3 | 97.8 | 113 | 103 | 94.2 | 102 | 100 | 105 | 102
Nc1ccn([C@@H]2O[C@H](CO)[C@@H](O)[C@@H]2O)c(=O)n1 [Cytarabine] (10 nM) | 96.8 | 112 | 99 | 105 |  | 99.4 | 96.5 | 96.4 | 99.3 | 114 | 97.6 | 107 | 109 | 102 | 80.4 | 93.8 | 99.2 | 107 | 90.2
Cc1c2oc3c(C)ccc(C(=O)N[C@@H]4C(=O)N[C@H](C(C)C)C(=O)N5CCC[C@H]5C(=O)N(C)CC(=O)N(C)[C@@H](C(C)C)C(=O)O[C@@H]4C)c3nc-2c(C(=O)N[C@@H]2C(=O)N[C@H](C(C)C)C(=O)N3CCC[C@H]3C(=O)N(C)CC(=O)N(C)[C@@H](C(C)C)C(=O)O[C@@H]2C)c(N)c1=O [Dactinomycin] (1 nM) | 71.9 | 77.8 | 90.8 | 87 |  | 97 | 79.9 | 90.3 | 80.8 | 105 | 79.4 | 71.4 | 94 | 81.8 | 99.9 | 60.3 | 97.7 | 105 | 102
COc1cccc2c1C(=O)c1c(O)c3c(c(O)c1C2=O)C[C@@](O)(C(=O)CO)C[C@@H]3O[C@H]1C[C@H](N)[C@H](O)[C@H](C)O1 [Doxorubicin] (1 nM) | 94.2 | 110 | 103 | 107 |  | 108 | 98.6 | 93.6 | 99.1 | 100 | 101 | 101 | 113 | 95.7 | 107 | 104 | 99.5 | 105 | 120
Cc1ccc(F)c(NC(=O)Nc2ccc(-c3cccc4[nH]nc(N)c34)cc2)c1 [Linifanib] (1 nM) | 104 | 109 | 103 | 101 |  | 111 | 101 | 102 | 110 | 98.9 | 106 | 104 | 113 | 114 | 100 | 106 | 106 | 112 | 112
